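Cultured in 96-well plates, cells were exposed to test compound for 48 hours across five concentrations. Abbreviation: GI50, concentration required for 50% inhibition of growth. TGI: total growth inhibition.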 Active and inactive are the calls of the source. Rule as the data show it: active = GI50 below about 0.43 µM; inactive = the rest.
Tests used:
Experiment in all cases: NCI tumour cell line growth inhibition, 48 h
[1] = test system: NCI-H460 lung
[2] = test system: CAKI-1 renal
[3] = test system: U251 CNS
[4] = test system: UO-31 renal
[5] = test system: SF-539 CNS
[6] = test system: MOLT-4 leukemia
[7] = test system: SNB-75 CNS
[8] = test system: NCI-H522 lung
[9] = test system: MCF7 breast
[10] = test system: HCT-15 colon
[11] = test system: HT29 colon
[12] = test system: NCI-H23 lung
[13] = test system: HOP-62 NSCLC
[14] = test system: HCC-2998 colon
[15] = test system: UACC-257 melanoma
[16] = test system: OVCAR-3 ovarian
[17] = test system: HOP-92 NSCLC
[18] = test system: SK-MEL-28 melanoma
[19] = test system: HCT-116 colon
[20] = test system: K-562 leukemia
[21] = test system: UACC-62 melanoma
[22] = test system: IGROV1 ovarian
[23] = test system: CCRF-CEM leukemia
[24] = test system: XF 498 CNS
[25] = test system: A549 NSCLC
[26] = test system: DMS 273 small cell lung
[27] = test system: SK-MEL-2 melanoma
[28] = test system: A498 renal
[29] = test system: SF-268 CNS
[30] = test system: OVCAR-8 ovarian
[31] = test system: KM20L2 colon
[32] = test system: SN12C renal
[33] = test system: P388/ADR leukemia
[34] = test system: SW-620 colon
[35] = test system: NCI/ADR-RES ovarian
[36] = test system: EKVX NSCLC
[37] = test system: DLD-1 colon
[38] = test system: RXF 393 renal
[39] = test system: DMS 114 small cell lung
[40] = test system: LOX IMVI melanoma
[41] = test system: SK-MEL-5 melanoma
[42] = test system: P388 leukemia
[43] = test system: MALME-3M melanoma
[44] = test system: OVCAR-4 ovarian
[45] = test system: HOP-18 NSCLC
[46] = test system: HL-60(TB) leukemia
[47] = test system: NCI-H226 lung
[48] = test system: SK-OV-3 ovarian
[49] = test system: OVCAR-5 ovarian
[50] = test system: M19-MEL melanoma
[51] = test system: SN12K1 renal
[52] = test system: RPMI-8226 leukemia
[53] = test system: SF-295 CNS
[54] = test system: KM12 colon
[55] = test system: SNB-19 CNS
[56] = test system: SNB-78 CNS
[57] = test system: COLO 205 colon

## C=Cc1ccccc1 (tested in a mixture with another compound)
[1]
  GI50: > 75 µg/mL
  TGI: > 75 µg/mL
[2]
  GI50: > 75 µg/mL
  TGI: > 75 µg/mL
[3]
  GI50: > 75 µg/mL
  TGI: > 75 µg/mL
[4]
  GI50: > 75 µg/mL
  TGI: > 75 µg/mL
[5]
  GI50: > 75 µg/mL
  TGI: > 75 µg/mL
[6]
  GI50: > 75 µg/mL
  TGI: > 75 µg/mL
[7]
  GI50: 28.3 µg/mL
  TGI: > 75 µg/mL
[8]
  GI50: > 75 µg/mL
  TGI: > 75 µg/mL
[9]
  GI50: > 75 µg/mL
  TGI: > 75 µg/mL
[10]
  GI50: > 75 µg/mL
  TGI: > 75 µg/mL
[11]
  GI50: > 75 µg/mL
  TGI: > 75 µg/mL
[12]
  GI50: > 75 µg/mL
  TGI: > 75 µg/mL
[13]
  GI50: 48.4 µg/mL
  TGI: > 75 µg/mL
[14]
  GI50: > 75 µg/mL
  TGI: > 75 µg/mL
[15]
  GI50: > 75 µg/mL
  TGI: > 75 µg/mL
[16]
  GI50: > 75 µg/mL
  TGI: > 75 µg/mL
[17]
  GI50: 59.5 µg/mL
  TGI: > 75 µg/mL
[18]
  GI50: > 75 µg/mL
  TGI: > 75 µg/mL
[19]
  GI50: > 75 µg/mL
  TGI: > 75 µg/mL
[20]
  GI50: > 75 µg/mL
  TGI: > 75 µg/mL
[21]
  GI50: > 75 µg/mL
  TGI: > 75 µg/mL
[22]
  GI50: > 75 µg/mL
  TGI: > 75 µg/mL
[23]
  GI50: > 75 µg/mL
  TGI: > 75 µg/mL
[24]
  outcome: inactive
[25]
  GI50: > 75 µg/mL
  TGI: > 75 µg/mL
[26]
  GI50: > 75 µg/mL
  TGI: > 75 µg/mL
[27]
  GI50: > 75 µg/mL
  TGI: > 75 µg/mL
[28]
  GI50: > 75 µg/mL
  TGI: > 75 µg/mL
[29]
  GI50: > 75 µg/mL
  TGI: > 75 µg/mL
[30]
  GI50: 63.3 µg/mL
  TGI: > 75 µg/mL
[31]
  outcome: inactive
[32]
  GI50: > 75 µg/mL
  TGI: > 75 µg/mL
[33]
  GI50: > 75 µg/mL
  TGI: > 75 µg/mL
[34]
  GI50: > 75 µg/mL
  TGI: > 75 µg/mL
[35]
  GI50: > 75 µg/mL
  TGI: > 75 µg/mL
[36]
  GI50: > 75 µg/mL
  TGI: > 75 µg/mL
[37]
  GI50: > 75 µg/mL
  TGI: > 75 µg/mL
[38]
  GI50: > 75 µg/mL
  TGI: > 75 µg/mL
[39]
  GI50: > 75 µg/mL
  TGI: > 75 µg/mL
[40]
  GI50: > 75 µg/mL
  TGI: > 75 µg/mL
[41]
  GI50: > 75 µg/mL
  TGI: > 75 µg/mL
[42]
  GI50: > 75 µg/mL
  TGI: > 75 µg/mL
[43]
  GI50: > 75 µg/mL
  TGI: > 75 µg/mL
[44]
  GI50: > 75 µg/mL
  TGI: > 75 µg/mL
[45]
  outcome: inactive
[46]
  GI50: > 75 µg/mL
  TGI: > 75 µg/mL
[47]
  GI50: > 75 µg/mL
  TGI: > 75 µg/mL
[48]
  GI50: > 75 µg/mL
  TGI: > 75 µg/mL
[49]
  GI50: > 75 µg/mL
  TGI: > 75 µg/mL
[50]
  GI50: > 75 µg/mL
  TGI: > 75 µg/mL
[51]
  GI50: > 75 µg/mL
  TGI: > 75 µg/mL
[52]
  GI50: > 75 µg/mL
  TGI: > 75 µg/mL
[53]
  GI50: > 75 µg/mL
  TGI: > 75 µg/mL
[54]
  GI50: > 75 µg/mL
  TGI: > 75 µg/mL
[55]
  GI50: > 75 µg/mL
  TGI: > 75 µg/mL

## C[C@H]1COC(c2ccccn2)=N1
[1]
  TGI: > 100 µM
[2]
  TGI: > 100 µM
[56]
  TGI: > 100 µM
[3]
  TGI: > 100 µM
[4]
  TGI: > 100 µM
[5]
  TGI: > 100 µM
[6]
  TGI: > 100 µM
[7]
  TGI: > 100 µM
[8]
  TGI: > 100 µM
[9]
  TGI: > 100 µM
[10]
  TGI: > 100 µM
[11]
  TGI: > 100 µM
[12]
  TGI: > 100 µM
[13]
  TGI: > 100 µM
[14]
  TGI: > 100 µM
[15]
  TGI: > 100 µM
[16]
  TGI: > 100 µM
[17]
  TGI: > 100 µM
[18]
  TGI: > 100 µM
[19]
  TGI: > 100 µM
[20]
  TGI: > 100 µM
[21]
  TGI: > 100 µM
[22]
  TGI: > 100 µM
[23]
  TGI: > 100 µM
[24]
  TGI: > 100 µM
[25]
  TGI: > 100 µM
[57]
  TGI: > 100 µM
[26]
  TGI: > 100 µM
[27]
  TGI: > 100 µM
[28]
  TGI: > 100 µM
[29]
  TGI: > 100 µM
[30]
  TGI: > 100 µM
[31]
  TGI: > 100 µM
[32]
  TGI: > 100 µM
[33]
  TGI: > 100 µM
[34]
  TGI: > 100 µM
[35]
  TGI: > 100 µM
[36]
  TGI: > 100 µM
[37]
  TGI: > 100 µM
[38]
  TGI: > 100 µM
[40]
  TGI: > 100 µM
[41]
  TGI: > 100 µM
[42]
  TGI: > 100 µM
[43]
  TGI: > 100 µM
[44]
  TGI: > 100 µM
[45]
  TGI: > 100 µM
[46]
  TGI: > 100 µM
[47]
  TGI: > 100 µM
[48]
  TGI: > 100 µM
[49]
  TGI: > 100 µM
[50]
  TGI: > 100 µM
[51]
  TGI: > 100 µM
[52]
  TGI: > 100 µM
[53]
  TGI: > 100 µM
[54]
  TGI: > 100 µM
[55]
  TGI: > 100 µM

Reference: PubChem BioAssay (NCI)
